Some test systems named below: DLD-1; M19-MEL; DMS-273; DMS-114; SNB-78; HOP-18; LXFL 529; XF498; RXF 631.
Assay in all cases: NCI-60 cell line screen, 48 h

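In this assay, cells in 96-well plates receive the compound at five concentrations for 48 hours. Endpoints are linearly interpolated between the surrounding concentrations. GI50 is the concentration that inhibits growth by half.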 Active and inactive are the calls of the source. Cut-off read from the data, not from the text of the source: active = GI50 up to about 1.1 µM and inactive = higher.

Take `CN(C)CCNC(=O)c1cccc2ccc(-c3ccc(O)cc3)nc12`: the GI50 in the test with DLD-1 is 2.47 µM (inactive); in the test on M19-MEL, 1.9 µM (inactive); with DMS-273, 0.743 µM (active); with DMS-114 it was 2.08 µM (inactive); in the test on SNB-78, 4.43 µM (inactive); in the test with HOP-18, 2.81 µM (inactive).
With `O=C(O)[C@@H](NS(=O)(=O)c1ccc2ccccc2c1)c1ccccc1`, the GI50 in the test on DLD-1 is > 100 µM (inactive); in the test with LXFL 529 it was > 100 µM (inactive); with M19-MEL, > 100 µM (inactive); in the test with DMS-273, > 100 µM (inactive); with XF498, 75.5 µM (inactive); in the test on RXF 631, > 100 µM (inactive). Moreover, the GI50 in the test with HOP-18 is > 100 µM (inactive).
For the molecule `CN1C(=O)N(C)C2(O)c3ccccc3C(=O)C12O` (configuration not stated), the GI50 in the test on DLD-1, in the test on LXFL 529, in the test on M19-MEL, in the test on DMS-273, in the test with DMS-114 and with RXF 631 was > 100 µM (inactive) each time. Moreover, the GI50 with SNB-78 and in the test with HOP-18 was > 100 µM (inactive) each time.
Consider `CC(=O)Nc1ccc(/C=C/C(=O)c2sc(C(N)=S)nc2C)cc1`, for which the GI50 with DLD-1, in the test on M19-MEL, with DMS-273, with DMS-114, in the test with SNB-78 and in the test on HOP-18 was > 100 µM (inactive) each time.
In the case of `Cc1cc2c(s1)C(=O)c1sccc1C2=O`, the GI50 with DLD-1 was 1.64 µM (inactive); in the test with LXFL 529, 1.19 µM (inactive); in the test with DMS-273, 1.24 µM (inactive); in the test on XF498, 1.55 µM (inactive); in the test with HOP-18, 1.48 µM (inactive).
Turning to `Cc1ccc(S(=O)(=O)c2c(N)n(CCN(C)C)c3nc4ccccc4nc23)cc1`, the GI50 in the test on DLD-1, with LXFL 529, in the test on M19-MEL, in the test on DMS-273, in the test on DMS-114 and with XF498 was > 100 µM (inactive) each time. The GI50 with SNB-78 and with HOP-18 was > 100 µM (inactive) each time.
For the molecule `CCOC(=O)c1sc2c(sc(=O)n2-c2ccccc2)c1O`, the GI50 with DLD-1 is 46.3 µM (inactive); in the test with LXFL 529, > 100 µM (inactive); in the test with M19-MEL, > 100 µM (inactive); with DMS-273, 29.4 µM (inactive); in the test on DMS-114, 98.9 µM (inactive); with XF498 it was > 100 µM (inactive). The results for the GI50 in the test on RXF 631, in the test on SNB-78 and in the test on HOP-18 were 58.6 µM (inactive), > 100 µM (inactive) and > 100 µM (inactive), respectively.
Take `N#CCCn1c(S)nnc1CCC(=O)Nc1ccc(Cl)cc1Cl`: the GI50 in the test with DLD-1, in the test on LXFL 529, in the test with M19-MEL, in the test with DMS-273, with DMS-114 and with XF498 was > 100 µM (inactive) in each case. Besides, the GI50 in the test on RXF 631 and in the test with SNB-78 was > 100 µM (inactive) each time.
Turning to `O=c1oc(=O)c2oc3ccccc3oc1=2`, the GI50 in the test with DLD-1, in the test with LXFL 529, with M19-MEL, in the test with DMS-273, in the test with DMS-114 and with XF498 was > 100 µM (inactive) each time. Moreover, the GI50 in the test with HOP-18 was > 100 µM (inactive).
As for `COC(=O)C(=O)C(C(=O)C=C(C)C)C(=O)C(=O)Nc1nc2ccc([N+](=O)[O-])cc2s1` (configuration not stated), the GI50 in the test on DLD-1 was 51.8 µM (inactive); with LXFL 529 it was 83.4 µM (inactive); in the test with M19-MEL, > 100 µM (inactive); with DMS-273, 47.6 µM (inactive); in the test on DMS-114, 31.4 µM (inactive); in the test on SNB-78, 58.2 µM (inactive). For the same molecule, the GI50 with HOP-18 was 4.51 µM (inactive).
For the molecule `CCN(CC)CCn1c2ccccc2c(=O)c2c(O)ccc(O)c21`, the GI50 in the test with LXFL 529 is 19.9 µM (inactive); in the test with DMS-273, 99.1 µM (inactive); with DMS-114, 18.5 µM (inactive); with XF498, 21.6 µM (inactive); with RXF 631, > 45.7 µM (inactive); in the test on SNB-78, 23.4 µM (inactive).
In the case of `c1cnc2c(c1)-n1cccc1C1(CCCCC1)NN2`, the GI50 is 46.5 µM (inactive) with DMS-273, 53.1 µM (inactive) in the test on DMS-114, 74.3 µM (inactive) with XF498 and 8.18 µM (inactive) in the test on HOP-18.
In the case of `O=C1/C(=C/c2ccc3c(c2)OCO3)SC2C=Nc3ccccc3N12` (configuration not stated), the GI50 with DLD-1 is > 100 µM (inactive); with LXFL 529, > 100 µM (inactive); with M19-MEL, > 100 µM (inactive); with DMS-273 it was > 100 µM (inactive); in the test with DMS-114, 93.5 µM (inactive); in the test on XF498, > 100 µM (inactive). Further, the GI50 with RXF 631 is > 100 µM (inactive); in the test on SNB-78 it was 92.9 µM (inactive); in the test with HOP-18, > 100 µM (inactive).
With `OCCCNc1ccnc2cc(Cl)ccc12`, the GI50 in the test on DLD-1, in the test with LXFL 529, in the test on M19-MEL, in the test on DMS-114, with XF498 and in the test with SNB-78 was > 100 µM (inactive) each time. Besides, in the test with HOP-18, the GI50 was > 100 µM (inactive).
For the molecule `COC(=O)C(CCC#N)(CCC#N)C(=O)OC`, the GI50 with LXFL 529, in the test on M19-MEL, in the test with DMS-273, in the test with DMS-114 and in the test with XF498 was > 100 µM (inactive) each time.
`CN1CCC23c4c5ccc(O)c4OC2C(=NN=C2CCC4(O)C6Cc7ccc(O)c8c7C4(CCN6C)C2O8)CCC3(O)C1C5` (configuration not stated): the GI50 in the test on DLD-1, with LXFL 529, with M19-MEL, in the test with DMS-273, in the test on DMS-114 and in the test on XF498 was > 100 µM (inactive) in each case. Besides, the GI50 in the test with RXF 631 and with HOP-18 was > 100 µM (inactive) in each case.
For the molecule `C[C@@H]1[C@@H]2[C@@H](C=C3C4CCC5Cc6nc7c(nc6C[C@@]5(C)C4C[C@H](O)[C@]32CO)CC2CCC3C4=C[C@H]5O[C@@]6(OC(C)(CO)C[C@@H]6O)[C@H](C)[C@@]5(O)[C@]4(C)[C@@H](O)CC3[C@]2(C)C7)O[C@]12CCC(C)(C)O2` (some centres not stated), the GI50 in the test with DLD-1 was 0.822 µM (active); with LXFL 529, 0.0118 µM (active); in the test with M19-MEL, 0.966 µM (active); in the test on DMS-273 it was 0.000826 µM (active); in the test with XF498, 0.00507 µM (active); in the test on SNB-78, 0.00486 µM (active). In the test on HOP-18, the GI50 is 0.401 µM (active).
For `CC(=O)O[C@H]1C(N(C)C(=O)c2ccccc2)CC[C@]2(C)C3CC[C@@]4(C)C(CC(O)[C@@H]4C(C)N(C)C)[C@@H]3CCC12` (some centres not stated), the GI50 with DLD-1, in the test with LXFL 529, in the test with M19-MEL, in the test with DMS-273, with DMS-114 and in the test with XF498 was > 100 µM (inactive) each time. The GI50 in the test on SNB-78 and in the test with HOP-18 was > 100 µM (inactive) throughout.
Regarding `O=C1/C(=C(\Nc2ccccc2)c2ccccc2)C=NN1c1ccccc1`, the GI50 in the test on DLD-1 is > 100 µM (inactive); with LXFL 529, > 100 µM (inactive); with DMS-273, 61.8 µM (inactive); in the test on DMS-114 it was 50.6 µM (inactive); in the test with XF498, > 100 µM (inactive); in the test on RXF 631, > 100 µM (inactive). In addition, the GI50 in the test with SNB-78 was > 100 µM (inactive); with HOP-18 it was < 0.01 µM (active).
`O=C(CCN1CCC(CCO)CC1)Nc1ccc2c(c1)C(=O)c1ccc(NC(=O)CCN3CCC(CCO)CC3)cc1C2=O`: the GI50 in the test with DLD-1 was 10.4 µM (inactive); in the test with LXFL 529 it was 5.25 µM (inactive); in the test on M19-MEL, 97.5 µM (inactive); in the test with DMS-273, 6.81 µM (inactive); with DMS-114, 6.53 µM (inactive); in the test with SNB-78 it was 3.43 µM (inactive). In addition, the GI50 in the test with HOP-18 was 25.5 µM (inactive).
Regarding `OCC(O)C(OC1OC(CO)C(O)C(O)C1O)c1nn(-c2ccccc2)c2nc3cc(Cl)ccc3nc12` (configuration not stated), the GI50 in the test on DLD-1, in the test on LXFL 529, in the test with M19-MEL, with DMS-114, in the test with XF498 and in the test on SNB-78 was > 100 µM (inactive) throughout.
In the case of `C=CCNC(=O)NCCCC(NC(C)=O)C(=O)NCc1ccccc1` (configuration not stated), the GI50 in the test with LXFL 529, in the test on M19-MEL, in the test on DMS-273, with XF498, in the test on RXF 631 and in the test on HOP-18 was > 100 µM (inactive) throughout.
`O=C(Nc1cccc(C(F)(F)F)c1)C(=O)C(C(=O)c1ccc2ccccc2c1)C1OC(=O)c2ccccc21` (configuration not stated): the GI50 is 6.35 µM (inactive) in the test on DLD-1; 4.82 µM (inactive) in the test with LXFL 529; 8.51 µM (inactive) in the test with M19-MEL; 6.3 µM (inactive) in the test with DMS-273; 6.89 µM (inactive) with DMS-114; 0.887 µM (active) in the test on XF498. Moreover, the GI50 with SNB-78 was 7.45 µM (inactive).
Regarding `Nc1c(-c2ccc(Cl)cc2Cl)[n+]([O-])c2ccccc2[n+]1[O-]`, the GI50 with DLD-1, with LXFL 529, in the test on M19-MEL, in the test on DMS-273, in the test with DMS-114 and in the test on XF498 was > 100 µM (inactive) each time. In addition, the GI50 was > 100 µM (inactive) with RXF 631, > 100 µM (inactive) in the test with SNB-78 and 76 µM (inactive) in the test on HOP-18.
Turning to `CC(C)(CN1CCCCC1)C(=O)CC(SCCS(=O)(=O)O)c1ccc(Br)cc1` (configuration not stated), the GI50 in the test with DLD-1 is 1.67 µM (inactive); with LXFL 529 it was 1.24 µM (inactive); with M19-MEL it was 1.66 µM (inactive); in the test with DMS-273, 1.65 µM (inactive); in the test on DMS-114, 1.75 µM (inactive); in the test with XF498 it was 0.562 µM (active). The GI50 in the test on SNB-78 was 4.46 µM (inactive); in the test with HOP-18, 0.832 µM (active).
Regarding `COc1cc2c(c(OC)c1O)-c1ccc(SC)c(=O)cc1C(NC(C)=O)CC2` (configuration not stated), the GI50 in the test on DLD-1 was 0.0597 µM (active); with LXFL 529, < 0.01 µM (active); in the test on M19-MEL, < 0.01 µM (active); in the test with DMS-273, < 0.01 µM (active); in the test with DMS-114, < 0.01 µM (active); with SNB-78, < 0.01 µM (active).

Values taken from ChEMBL document CHEMBL1201862, “PubChem BioAssay data set” (2004).
